For orientation: IC50 means the concentration that gives 50% inhibition. A word on the Ki: it is the dissociation constant of the complex between target and ligand, obtained from inhibition or displacement. By melting point is commonly meant the temperature of the solid-liquid transition.

Series [1] deals with T1, Human 5-HT1A Receptor (Homo sapiens, UniProt P08908).
T1 construct: expressed in transfected cells; host or cells: CHO cells
T1 sequence (P08908 1-422): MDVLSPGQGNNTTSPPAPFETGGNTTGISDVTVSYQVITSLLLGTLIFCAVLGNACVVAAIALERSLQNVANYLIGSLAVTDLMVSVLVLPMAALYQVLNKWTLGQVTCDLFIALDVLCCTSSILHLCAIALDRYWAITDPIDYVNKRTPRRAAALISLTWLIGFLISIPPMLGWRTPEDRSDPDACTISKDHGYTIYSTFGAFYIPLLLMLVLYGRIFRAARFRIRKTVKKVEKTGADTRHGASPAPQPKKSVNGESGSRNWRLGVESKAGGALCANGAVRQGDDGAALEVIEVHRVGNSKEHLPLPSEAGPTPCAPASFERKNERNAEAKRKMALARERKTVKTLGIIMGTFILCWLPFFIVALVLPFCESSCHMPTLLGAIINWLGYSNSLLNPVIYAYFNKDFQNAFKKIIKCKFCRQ
The series can be described thus: cAMP RIA in human 5-HT1A receptor cell line. To be noted: superscript b; reversal of agonist activity, CHO cells; read-out: c-AMP, (IC50)^b. Format: cell-based. On the procedure: Stably transfected CHO cells were grown in DMEM containing 10% heat inactivated FBS and non-essential amino acids. The cells were plated at a density of 10^6 cells per well in a 96 well plate and incubated for 2 days in a CO2 incubator. On the second day, the media was replaced with 0.1 ml Krebs and incubated 15 minutes at 37° C. The media was then replaced with Krebs buffer containing 500 uM IBMX and incubated 5 minutes at 37° C. Wells were treated with forskolin (1 uM final conc) followed immediately by test compound (0.1 and 1 uM for initial screen) and incubated for an additional 10 min at 37° C. Reaction was terminated by removal of the media and addition of 0.5 ml ice cold assay buffer (supplied in RIA kit). Plates are stored at −20° C. prior to assessment of cAMP formation by RIA. Compounds shown to have no agonist activities were further analyzed for ability to reverse agonist activity. In separate experiments, 6 concentrations of antagonist were preincubated for 20 min prior to the addition of agonist and forskolin. Cells were harvested as described. The cAMP kit is supplied by Amersham and the RIA is performed as per kit instructions. In the initial screen, percent inhibition of forskolin stimulated cAMP was measured. In the secondary screen, IC50 of reversal of agonist activity was measured. Calculations of IC50 were performed by GraphPad Prism. Serotonin, BMY 7378, Buspirone, and 8-OH-DPAT were used as reference compounds.

Series [2] concerns the target T1, Human 5-HT1A Receptor. Briefly: 8-OH-DPAT binding, human 5-HT1A receptor cell line. Particulars: stably transfected CHO cells, 8-OH-DPAT ligand 1.5 nM; read-out: h5-HT1A Affinity, Ki. On the procedure: Stably transfected CHO cells were grown in DMEM containing 10% heat inactivated FBS and non-essential amino acids. Cells were scraped off the plate, transferred to centrifuge tubes, and washed twice by centrifugation (2000 rpm for 10 min., 4° C.) in buffer (50 mM Tris, pH 7.5). The resulting pellets were aliquoted and placed at −80° C. On day of assay, the cells were thawed on ice, and resuspended in buffer. The binding assay was performed in a 96 well microtiter plate in a total volume of […]. Non-specific binding was determined in the presence of […] 5HT; final ligand concentration was 1.5 nM. Following a 30 min. incubation at room temperature, the reaction was terminated by the addition of ice cold buffer and rapid filtration through a GF/B filter presoaked for 30 min. in 0.5% PEI. Compounds were initially tested in a single point assay to determine percent inhibition at […]. Subsequently, Ki values were determined for compounds defined to be active. Percent inhibition Ki was determined by RFComp (Lundon Software), with Serotonin 8-OH-DPAT as the reference compounds.

Another series deals with T2, serotonin transporter (Rattus norvegicus, UniProt P31652).
T2 construct: frontal cortical membranes prepared from male S.D. rats; from tissue; host or cells: rat frontal cortex membranes (male Sprague-Dawley)
T2 sequence (P31652 whole entry): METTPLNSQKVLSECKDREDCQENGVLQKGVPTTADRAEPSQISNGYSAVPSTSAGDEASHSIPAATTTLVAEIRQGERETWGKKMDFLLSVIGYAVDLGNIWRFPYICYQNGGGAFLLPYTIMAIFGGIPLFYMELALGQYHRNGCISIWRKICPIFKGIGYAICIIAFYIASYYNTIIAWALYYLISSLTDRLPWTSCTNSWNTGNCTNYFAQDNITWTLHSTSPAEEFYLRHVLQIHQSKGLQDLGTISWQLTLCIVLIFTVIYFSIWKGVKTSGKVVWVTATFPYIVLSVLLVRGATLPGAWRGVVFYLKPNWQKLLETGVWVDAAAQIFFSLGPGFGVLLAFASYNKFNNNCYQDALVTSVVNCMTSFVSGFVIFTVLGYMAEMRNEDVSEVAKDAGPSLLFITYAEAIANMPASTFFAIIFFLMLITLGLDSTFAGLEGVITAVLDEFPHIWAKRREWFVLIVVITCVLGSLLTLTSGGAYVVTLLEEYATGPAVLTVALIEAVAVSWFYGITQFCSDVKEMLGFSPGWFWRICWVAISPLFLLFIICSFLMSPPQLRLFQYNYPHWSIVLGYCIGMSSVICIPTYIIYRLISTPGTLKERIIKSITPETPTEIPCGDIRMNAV
Briefly: 3H-paroxetine binding to the serotonin transporter, rat frontal cortical membranes. To be noted: values printed in parentheses, 3H-paroxetine 0.1 nM, read-out: rb-5-HH-T, (IC50). On the procedure: A protocol similar to that used by Cheetham et al. (Neuropharmacol. 32:737, 1993) was used to determine the affinity of compounds for the serotonin transporter. Briefly, frontal cortical membranes prepared from male S.D. rats were incubated with ^3H-paroxetine (0.1 nM) for 60 min at 25° C. All tubes also contained either vehicle, test compound (one to eight concentrations), or a saturating concentration of fluoxetine (10 μM) to define […]. All reactions are terminated by the addition of ice cold Tris buffer followed by rapid filtration using a Tom Tech filtration device to separate bound from free ^3H-paroxetine. Bound radioactivity was quantitated using a Wallac 1205 Beta Plate® counter. Nonlinear regression analysis was used to determine IC50 values which were converted to Ki values using the method of Cheng and Prusoff (Biochem. Pharmacol. 22: 3099, 1973); […].

`Cc1ccc2c3c(ccc2n1)OC[C@H](CNCC1CCc2[nH]c4ccc(F)cc4c2C1)O3` (mixture of isomers) [Example 2, N-[(6-fluoro-2,3,4,9-tetrahydro-1H-carbazol-3-yl)methyl]-N-{[(2S)-8-methyl-2,3-dihydro[1,4]dioxino[2,3-f]quinolin-2-yl]methyl}amine] came in with a melting point of 89 to 97 °C. The IC50 on Human 5-HT1A Receptor [1] was 0.0072 µM. At Human 5-HT1A Receptor [2], the Ki is 0.00136 µM. For the same molecule, on serotonin transporter, the 50% inhibitory concentration (IC50) was 0.00526 µM.

As for `Cc1ccc2c3c(ccc2n1)OC[C@H](CNCC1CCc2c(c4cc(F)ccc4n2C)C1)O3` (mixture of isomers) [Example 6, N-[(6-fluoro-9-methyl-2,3,4,9-tetrahydro-1H-carbazol-3-yl)methyl]-N-{[(2S)-8-methyl-2,3-dihydro[1,4]dioxino[2,3-f]quinolin-2-yl]methyl}amine], the melting point is 57 to 62 °C. Further, the IC50 at Human 5-HT1A Receptor [1] was determined as 0.532 µM. Also, on Human 5-HT1A Receptor [2], the Ki amounted to 0.00365 µM. The IC50 at serotonin transporter stood at 0.00901 µM.

Molecule `Cc1ccc2c3c(ccc2n1)OC[C@H](CNCC1CCc2c([nH]c4ccc(F)cc24)C1)O3` (stereo partly drawn) [Example 1, N-[(6-fluoro-2,3,4,9-tetrahydro-1H-carbazol-2-yl)methyl]-N-{[(2S)-8-methyl-2,3-dihydro[1,4]dioxino[2,3-f]quinolin-2-yl]methyl}amine] returned a melting point of 92 to 96 °C. Also, the IC50 at Human 5-HT1A Receptor [1] worked out at 0.0152 µM. In addition, the Ki on Human 5-HT1A Receptor [2] is 0.00223 µM. Also, at serotonin transporter, the IC50 is 0.0494 µM.

Molecule `Cc1ccc2c3c(ccc2n1)OC[C@H](CNC[C@@H]1CCc2[nH]c4c(F)cc(F)cc4c2C1)O3.Cl.Cl` [Example 9, N-{[(3R)-6,8-difluoro-2,3,4,9-tetrahydro-1H-carbazol-3-yl]methyl}-N-{[(2S)-8-methyl-2,3-dihydro[1,4]dioxino[2,3-f]quinolin-2-yl]methyl}amine dihydrochloride] came in with a melting point of 260 to 272 °C. Further, on Human 5-HT1A Receptor [1], the IC50 worked out at 0.105 µM. For the same molecule, the Ki at Human 5-HT1A Receptor [2] came out at 0.0037 µM. Further, the IC50 on serotonin transporter was determined as 0.0576 µM.

As to `Cc1ccc2c3c(ccc2n1)OC[C@H](CNC[C@H]1CCc2[nH]c4c(F)cc(F)cc4c2C1)O3.Cl.Cl` [Example 10, N-{[(3S)-6,8-difluoro-2,3,4,9-tetrahydro-1H-carbazol-3-yl]methyl}-N-{[(2S)-8-methyl-2,3-dihydro[1,4]dioxino[2,3-f]quinolin-2-yl]methyl}amine dihydrochloride], the melting point lay within 267 to 275 °C. In addition, the half-inhibitory concentration (IC50) at Human 5-HT1A Receptor [1] was found to be 0.249 µM. Moreover, the inhibitory constant (Ki) on Human 5-HT1A Receptor [2] was 0.00495 µM. For the same molecule, the IC50 at serotonin transporter is 0.0113 µM.

`Cc1ccc2c3c(ccc2n1)OC[C@H](CNCC1CCc2[nH]c4cccc(F)c4c2C1)O3.Cl.Cl` (stereo partly drawn) [Example 11, [(5-fluoro-2,3,4,9-tetrahydro-1H-carbazol-3-yl)methyl]{[(2S)-8-methyl-2,3-dihydro[1,4]dioxino[2,3-f]quinolin-2-yl]methyl}amine dihydrochloride] displayed a melting point of 220 to 230 °C. The IC50 on Human 5-HT1A Receptor [1] is 0.0492 µM. The Ki at Human 5-HT1A Receptor [2] amounted to 0.0167 µM. Moreover, the IC50 on serotonin transporter came out at 0.124 µM.

The molecule `Cc1ccc2c3c(ccc2n1)OC[C@H](CNCC1CCc2c(c4c(F)cccc4n2C)C1)O3` (stereo partly drawn) [Example 12, N-[(5-fluoro-9-methyl-2,3,4,9-tetrahydro-1H-carbazol-3-yl)methyl]-N-{[(2S)-8-methyl-2,3-dihydro[1,4]dioxino[2,3-f]quinolin-2-yl]methyl}amine] yielded a melting point of 84 to 90 °C. Moreover, the IC50 on Human 5-HT1A Receptor [1] is 0.0267 µM. Besides, the Ki at Human 5-HT1A Receptor [2] turned out to be 0.00054 µM. In addition, on serotonin transporter, the IC50 was found to be 0.18 µM.

`Cc1ccc2c3c(ccc2n1)OC[C@H](CNCC1CCc2[nH]c4cc(F)ccc4c2C1)O3` (stereo partly drawn) [Example 13, N-[(7-fluoro-2,3,4,9-tetrahydro-1H-carbazol-3-yl)methyl]-N-{[(2S)-8-methyl-2,3-dihydro[1,4]dioxino[2,3-f]quinolin-2-yl]methyl}amine] returned a melting point of 89 to 97 °C. The IC50 on Human 5-HT1A Receptor [1] amounted to 0.0221 µM. Further, the Ki on Human 5-HT1A Receptor [2] turned out to be 0.0018 µM. At serotonin transporter, the IC50 stood at 0.12 µM.

Values taken from patent US7297704B2, “Cycloalkyfused indole, benzothiophene, benzofuran and idene derivatives” (Wyeth, priority 2005, dated 2007).
